Patent US5043332A, “Novel 11β-substituted -19-nor-steriods” (priority 1981, dated 1991)

Legend:
[1] = molecular target: T1, Androgen receptor of prostate of rats (Rattus norvegicus, UniProt P15207); test: Androgen receptor binding (displacement of tritiated product P)
T1 construct: The prostates were removed, weighed and homogenized at 0° C; from tissue; host or cells: rat prostate, 105,000 g supernatant (castrated male Sprague-Dawley rats)
T1 sequence (P15207 1-902): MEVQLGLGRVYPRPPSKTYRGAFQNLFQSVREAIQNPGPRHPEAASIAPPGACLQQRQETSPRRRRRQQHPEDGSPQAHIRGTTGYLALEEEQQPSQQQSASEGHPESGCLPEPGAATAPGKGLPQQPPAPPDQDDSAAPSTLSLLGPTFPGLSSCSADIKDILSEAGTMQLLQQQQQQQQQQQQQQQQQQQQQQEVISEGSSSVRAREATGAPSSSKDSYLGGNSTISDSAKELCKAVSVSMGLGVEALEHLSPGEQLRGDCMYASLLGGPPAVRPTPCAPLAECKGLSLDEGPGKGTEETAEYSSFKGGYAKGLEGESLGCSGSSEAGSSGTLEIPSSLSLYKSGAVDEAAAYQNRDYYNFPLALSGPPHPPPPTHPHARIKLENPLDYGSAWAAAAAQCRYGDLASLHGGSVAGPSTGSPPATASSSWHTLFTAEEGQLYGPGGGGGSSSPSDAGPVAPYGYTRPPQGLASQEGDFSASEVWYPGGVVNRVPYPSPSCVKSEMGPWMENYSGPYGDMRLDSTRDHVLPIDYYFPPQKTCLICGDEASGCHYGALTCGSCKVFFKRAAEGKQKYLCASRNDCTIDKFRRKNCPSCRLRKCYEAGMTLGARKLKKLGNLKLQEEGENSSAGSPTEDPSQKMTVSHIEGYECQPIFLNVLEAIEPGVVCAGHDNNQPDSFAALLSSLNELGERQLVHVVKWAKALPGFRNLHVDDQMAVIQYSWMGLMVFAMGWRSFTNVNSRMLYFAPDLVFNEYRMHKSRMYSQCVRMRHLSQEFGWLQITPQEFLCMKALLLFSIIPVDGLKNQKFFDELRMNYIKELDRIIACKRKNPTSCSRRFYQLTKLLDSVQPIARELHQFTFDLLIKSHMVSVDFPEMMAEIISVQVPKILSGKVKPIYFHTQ
Protocol: B. Androgen receptor of prostate of rats
Male Sprague-Dawley EPOS rats weighing of 160 to 200 g were castrated and 24 hours later, the animals were killed. The prostates were removed, weighed and homogenized at 0° C. with a polytetrafluoroethylene-glass Potter with a buffered TS solution (Tris, 10 mM, 0.25M Saccharose, HCl-pH of 7.4) using 1 g of tissue per 5 ml of TS. The homogenate was then ultracentrifuged at 105,000 g for 60 […] (T) of product P or 17α-methyl-Δ^4,9,11 -estratriene-17β-ol-3-one in the presence of increasing concentration (0-1,000×10^-9 M) of either cold P, cold testosterone or the test compound. The concentration of tied tritiated (B) was measured for each incubate by the technique of adsorption on carbon-dextran.
(§1) The calculation of the relative affinity of […] (ARL) was identical for all of the above receptor tests. One traced the following two curves: the percentage of tied tritiated hormone B/T as a function of the logarithm of the cold hormone concentration and B/T as a function of the logarithm of the concentration of the cold test product. One determined the line of the equation. [formula]
(§2) The intersection of the I50 line and the curves permits one to determine the concentrations of the cold hormone of the reference (CH) and the cold test compound (CX) which inhibit by 50% the tieing of tritiated hormone with the receptor. The relative affinity of tieing (ARL) of the test product was determined by the equation: [formula]

[2] = molecular target: T2, Gluocorticoid receptor of thymus of rats (Rattus norvegicus, UniProt P06536); test: Glucocorticoid receptor binding (displacement of tritiated dexamethasone); details: incubation 4 H at 0° C.
T2 construct: The thymus were removed and homogenized at 0° C; from tissue; host or cells: rat thymus, 105,000 g supernatant (adrenalectomized male Sprague-Dawley rats)
T2 sequence (P06536 1-795): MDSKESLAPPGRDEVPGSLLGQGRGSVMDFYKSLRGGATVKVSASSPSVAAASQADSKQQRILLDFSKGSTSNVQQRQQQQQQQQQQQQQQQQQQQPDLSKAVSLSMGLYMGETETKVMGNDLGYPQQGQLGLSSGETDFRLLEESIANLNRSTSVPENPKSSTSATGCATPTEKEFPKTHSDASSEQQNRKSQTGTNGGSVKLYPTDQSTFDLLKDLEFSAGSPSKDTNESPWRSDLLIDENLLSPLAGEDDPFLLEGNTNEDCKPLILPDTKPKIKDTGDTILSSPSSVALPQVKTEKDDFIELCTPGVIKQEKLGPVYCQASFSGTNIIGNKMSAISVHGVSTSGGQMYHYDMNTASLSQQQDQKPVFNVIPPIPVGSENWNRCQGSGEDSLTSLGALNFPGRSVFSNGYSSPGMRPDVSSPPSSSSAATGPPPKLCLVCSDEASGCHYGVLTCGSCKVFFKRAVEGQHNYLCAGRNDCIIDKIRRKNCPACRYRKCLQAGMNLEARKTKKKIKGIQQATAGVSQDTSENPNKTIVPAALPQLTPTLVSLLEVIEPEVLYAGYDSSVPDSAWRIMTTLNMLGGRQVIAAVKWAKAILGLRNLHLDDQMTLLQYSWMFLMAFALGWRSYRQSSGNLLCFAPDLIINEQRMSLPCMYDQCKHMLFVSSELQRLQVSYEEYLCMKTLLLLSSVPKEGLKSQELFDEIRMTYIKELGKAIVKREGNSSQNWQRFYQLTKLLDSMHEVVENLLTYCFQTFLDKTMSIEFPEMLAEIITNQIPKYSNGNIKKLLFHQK
Protocol: D. Gluocorticoid receptor of thymus of rats
Male Sprague-Dawley EPOS rats weighing 160 to 200 g were surrenalectomized and the animals were killed 4 to 8 days later. The thymus were removed and homogenized at 0° C. in a buffered TS solution of 10 mM, Tris, 0.25M of Saccharose, 2 mM of dithiothreitol HCl for a pH of 7.4 using a polytetrafluoroethylene-glass Potter at a rate of 1 g of tissue per 10 ml of TS. […] The concentration of tied tritiated dexamethasone (B) was measured for each incubate by the adsorption on carbon-dextran technique.
as §1, §2

[3] = molecular target: T3, Estrogen receptor of uterus of mice (Mus musculus, UniProt P19785); test: Estrogen receptor binding (displacement of tritiated estradiol); details: for agonist or antagonistic activity to estrogens: concluded from receptor affinity
T3 construct: the uterus were removed and homogenized at 0° C; from tissue; host or cells: mouse uterus, 105,000 g supernatant (immature females 18 to 21 days old)
T3 sequence (P19785 1-599): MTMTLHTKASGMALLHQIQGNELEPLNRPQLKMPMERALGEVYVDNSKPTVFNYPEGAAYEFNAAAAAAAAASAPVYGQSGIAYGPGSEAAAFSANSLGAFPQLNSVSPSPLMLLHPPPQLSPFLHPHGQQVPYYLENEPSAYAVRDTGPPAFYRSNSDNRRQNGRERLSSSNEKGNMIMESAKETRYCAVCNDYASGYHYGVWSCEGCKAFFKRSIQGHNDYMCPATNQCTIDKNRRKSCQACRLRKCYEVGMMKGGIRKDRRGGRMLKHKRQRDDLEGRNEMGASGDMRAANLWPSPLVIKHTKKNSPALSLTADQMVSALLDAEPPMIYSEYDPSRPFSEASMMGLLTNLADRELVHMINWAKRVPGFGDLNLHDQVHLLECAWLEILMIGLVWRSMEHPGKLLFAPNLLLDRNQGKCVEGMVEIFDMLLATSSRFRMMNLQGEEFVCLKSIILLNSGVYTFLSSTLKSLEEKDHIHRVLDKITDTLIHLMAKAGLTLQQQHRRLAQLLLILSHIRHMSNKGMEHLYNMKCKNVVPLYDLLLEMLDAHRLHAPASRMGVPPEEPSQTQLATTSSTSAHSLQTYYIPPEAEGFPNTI
Protocol: E. Estrogen receptor of uterus of mice
Immature female mice 18 to 21 days old were killed and the uterus were removed and homogenized at 0° C. with a polytetrafluoroethylene-glass Potter in a buffered TS solution consisting of 10 mM, Tris, 0125M Saccharose, HCl for a pH of 7.4 at a rate of 1 g of tissue per 25 ml of TS. The homogenate was then ultracentrigued at 105,000 g for 90 minutes at 0° C. and aliquoits of the resulting […] were incubated at 0° C. for a time (t) with a constant concentration (T) of tritiated estradiol in the presence of increasing concentrations (0 to 1000×10^-9 M) of either cold estradiol or cold test compound. The concentration of tied tritiated estradiol (B) was measured for each incubate by the technique of adsorption on carbon-dextran.
as §1, §2

uterine endometrium [4] = test: Progestomimetic activity, oral, change in uterine endometrium (McPhail); format: in vivo, immature female rabbits; details: progesterone 0.2 mg/kg subcutaneously
Protocol: (§3) IV. Progestomimetic and Anti-progestomimetic Activity
(§4) a) Groups of immature female rabbits weighing about 1 kg had administered to them subcutaneously from day 1 to day 5, 5 μg of estradiol. The product tested was afterward administered orally from day 8 to day 11 in a volume of 0.5 cm^3 of water containing 0.5% of carboxymethyl cellulose and 0.2% of Tween. On day 12, the rabbits were sacrificed, their uteruses were retained and fixed in Bouin's solution and histologically studied.
(§5) The changes in the uterine endometrium were noted according to the method of McPhail.

uterine endometrium [5] = test: Anti-progestomimetic activity versus progesterone, oral, change in uterine endometrium (McPhail); format: in vivo, immature female rabbits; details: progesterone 0.2 mg/kg subcutaneously, alone
Protocol: as §3, §4, §5

uterine endometrium [6] = test: Anti-progestomimetic activity versus progesterone, intrauterine, change in uterine endometrium (McPhail); format: in vivo, immature female rabbits; details: progesterone alone 10 μg/rabbit, method of McPhail
Protocol: Groups of three immature female rabbits weighing about 1 kg were topically treated on the dorsal skin with 25 μg of estradiol in 10 μl of ethanol on day 1. On day 4 the product to be tested dissolved in 0.1 ml, of sesame oil containing 5% benzyl alcohol was introduced into a part of the uterus isolated between two ligatures. On the sixth day the animals were sacrificed, their uteruses retained and fixed in Bouin's solution for histological examination. Changes in the uterine endometrium were noted after the method of McPhail.

Row | Structure (SMILES) | relative affinity of tieing (ARL), Androgen ([1]; incubation 1/2H at 0° C.) | relative affinity of tieing (ARL), Androgen ([1]; incubation 24 H at 0° C.) | relative affinity of tieing (ARL), Glucocorticoid [2] | agonist or antagonistic activity to estrogens [3] | relative affinity of tieing (ARL), Estrogen ([3]; incubation 2 H at 0° C.) | relative affinity of tieing (ARL), Estrogen ([3]; incubation 5 H (25° C.)) | CHANGE IN THE ENDOMETRIUM (uterine endometrium [4]) | CHANGE IN THE ENDOMETRIUM (uterine endometrium [5]) | CHANGE IN THE ENDOMETRIUM (uterine endometrium [6])
1 | CN(C)CCOc1ccc([C@H]2C[C@]3(C)[C@@H](O)CC[C@H]3[C@@H]3CCc4cc(O)ccc4[C@H]32)cc1 [Example 13, 11β-[4-(2-dimethylaminoethoxy)-phenyl]-Δ^1,3,5(10) -estratriene-3,17β-diol] | 5 | 6 | 3,9 | present an agonist or antagonistic activity to estrogens | 78 | 239 |  |  | 
2 | CN(C)CCOc1ccc([C@H]2C[C@]3(C)[C@@H](O)CC[C@H]3[C@@H]3CCc4ccccc4[C@H]32)cc1 [Example 14, 11β-[4-(2-dimethylaminoethoxy)-phenyl]-Δ^1,3,5(10) -estratriene-17β-ol] | 10,6 | 0,5 | 0,4 | present an agonist or antagonistic activity to estrogens | 4,1 | 1,4 |  |  | 
3 | CN(C)CCOc1ccc2c(c1)CC[C@@H]1[C@@H]2[C@@H](c2ccccc2)C[C@]2(C)[C@@H](O)CC[C@@H]12 [Example 15, 3-(2-dimethylamino-ethoxy)-11β-phenyl-Δ^1,3,5(10) -estratriene-17β-ol] | 1,3 | 0,2 | 2 |  | 0,1 | 0,1 |  |  | 
4 | CC(=O)[C@H]1CC[C@H]2[C@@H]3CCC4=CC(=O)CC[C@]4(C)[C@H]3CC[C@]12C [Progesterone, progesterone, reference compound] |  |  |  |  |  |  | 3.2 McPHAIL UNTS | 3.0 McPHAIL UNTS | 2.7
